We go through three compounds from US8221728B2, “Silanic para-aminobenzalmalonate-substituted s-triazine compounds and photoprotective compositions comprised thereof” (L'Oreal, priority 2004, dated 2012).

Where “and” joins values, the source holds several entries; their conditions need not be identical. Equal entries are not always repeated.

Series [1] can be described thus: Photostability of a film of 5% solution in Miglyol 812 under Oriel solar simulator, HPLC quantification. The class given is physicochemical. The following applies: 5% by weight in Miglyol 812, 1 mg/cm^2 film, irradiated one hour, solar simulator UV-A=14.2 mW/cm^2, UV-B=0.41 mW/cm^2. On the procedure:
The two products were dissolved at 5% by weight in the oil Miglyol 812. Approximately 10 mg of oily solution are spread over 10 cm^2 at the surface of a hollow disc of frosted glass; the amount is determined by weighing.
The films of the oily solutions are irradiated for one hour using an Oriel solar simulator (UV-A=14.2 mW/cm^2; UV-B=0.41 mW/cm^2), then extracted with 10 ml of ethanol comprising 10% of isopropanol and subjected to ultrasound for 5 min. The products are quantified by HPLC of the extracts.
HPLC conditions: column: UP5WOD-25QS, 250×4.6 mm, 5 μm, Interchrom; eluent: methanol (Comparative Example 1) and 96% of methanol+4% of water (Example 1); flow rate: 1 ml/min; volume injected: 10 μl; detection: diode array; rt (min): 5.2 (Comparative Example 1) and 13.8 (Example 1).
The degrees of loss are determined by comparison of the amounts of product present in the irradiated samples and in the non-irradiated controls prepared simultaneously and treated in the same way (means over 3 samples; S=surface/mg solution): % loss=100×(So−Sirr)/So

The nature of series [2]: UV absorption spectrum in ethanol. The class given is physicochemical. On the procedure:
2,4,6-Tris(diethyl 4′-aminobenzalmalonate)-s-triazine (1 g, […]) (Example 1 of Application EP 0,507,691) is dissolved in 5 ml of trimethylsilylethyl alcohol while sparging with nitrogen. The mixture is subsequently heated at reflux for 25 hours with 0.2 g of para-toluenesulphonic acid. After addition of 30 ml of dichloromethane, the organic phase is washed with water and then with an aqueous sodium bicarbonate solution, and dried. It is concentrated under reduced pressure. The residue obtained is purified by chromatography on a silica column (eluent: heptane/AcOEt 85/15). 0.35 g (Yield 32%) of the derivative of Example 2 is collected in the form of a pale yellow gum: • UV (ethanol) λ max=355 nm; ε max=125 250;E1%=965. […]

Take `CC(C)COC(=O)C(=Cc1ccc(Nc2nc(Nc3ccc(C=C(C(=O)OCC(C)C)C(=O)OCC(C)C)cc3)nc(Nc3ccc(C=C(C(=O)OCC(C)C)C(=O)OCC(C)C)cc3)n2)cc1)C(=O)OCC(C)C` [Compound (prior art), 2,4,6-Tris(diisobutyl 4′-aminobenzalmalonate)-s-triazine]: the “% of disappearance (% loss)” value in series [1] is 11% and 10% and 9%.
On to `C[Si](C)(C)CCOC(=O)C(=Cc1ccc(Nc2nc(Nc3ccc(C=C(C(=O)OCC[Si](C)(C)C)C(=O)OCC[Si](C)(C)C)cc3)nc(Nc3ccc(C=C(C(=O)OCC[Si](C)(C)C)C(=O)OCC[Si](C)(C)C)cc3)n2)cc1)C(=O)OCC[Si](C)(C)C` [Example 2, 2,4,6-tris(di(trimethylsilylethyl) 4′-aminobenzalmalonate)-s-triazine], for which, in series [2], the E1% was 965, the ε max is 125 250 and the λ max turned out to be 355 nm.
Taken in the same sequence, the figures for “2,4,6-tris(di(trimethylsilylmethyl) 4′-aminobenzalmalonate)-s-triazine [Example 1]” were 987, 118 970 and 355 nm.
